Measured values as given in paper PMC6458983 (Cancer Chemotherapy and Pharmacology, 2019).
Read-outs that look alike come from different tables or passages of the source. Marks after values point to notes of the source that are not given here.

Legend:
[1] = tested on: Japanese patients with NSCLC; experiment: Multivariate logistic regression of ILD with gefitinib exposure and other risk factors; format: in vivo; conditions: for OR estimate (95% CI) for acute ILD: Age (≥55 vs <55 years): gefitinib-treated patients
Protocol: Patients with and without ILD, in whom pharmacokinetic measurements were available, were included in this analysis. […] A multivariate logistic regression model was used in this analysis; the analysis was performed using SAS version 9.3. […] In addition, the interaction of smoking history and normal lung coverage, and the interaction of the severity of pre-existing ILD and normal lung coverage were also studied. In addition, pharmacokinetic exposure parameters were divided into four quartiles (see “Results”) and investigated as risk factors. For association with ILD risk, the mid-1, mid-2, and high-exposure groups were compared with the low-exposure group.

human AGP = conditions: cited from earlier work
[2] = Analysis 1 (PK parameter AUC0–24, single dose)
[3] = Analysis 1, gefitinib exposure after a single dose
[4] = Analysis 2 (PK parameter AUC0–24,ss)
[5] = Analysis 2, gefitinib exposure at steady state
[6] = Analysis 3 (PK parameter Cmax, single dose)
[7] = Analysis 3, gefitinib exposure after a single dose
[8] = Analysis 4 (PK parameter Cmax,ss)
[9] = Analysis 4, gefitinib exposure at steady state

OR estimate (95% CI) for acute ILD: Normal lung coverage (10%–50% vs 60%–100%) [1, 2]: 3.39 (0.63–18.31)
OR estimate (95% CI) for acute ILD: Pre-existing IP (yes vs no) [1, 2]: 4.01 (0.37–43.22)
OR estimate (95% CI) for acute ILD: WHO performance status 1 vs 0 [1, 2]: 0.59 (0.2–1.68)
OR estimate (95% CI) for acute ILD: WHO performance status 2–3 vs 0 [1, 2]: 1.75 (0.48–6.33)
OR estimate (95% CI) for acute ILD: Age (≥55 vs <55 years) [1, 2]: 1.86 (0.5–6.88)
OR estimate (95% CI) for acute ILD: AUC0–24 Quartile 2 vs Quartile 1 [1, 3]: 0.68 (0.2–2.32)
OR estimate (95% CI) for acute ILD: AUC0–24 Quartile 3 vs Quartile 1 [1, 3]: 0.62 (0.18–2.12)
OR estimate (95% CI) for acute ILD: AUC0–24 Quartile 4 vs Quartile 1 [1, 3]: 3.35 (1.14–9.88)
OR estimate (95% CI) for acute ILD: Duration of NSCLC ≥1 vs <0.5 years [1, 4]: 0.57 (0.19–1.69)
OR estimate (95% CI) for acute ILD: Interaction of pre-existing IP and normal lung coverage [1, 4]: 0.25 (0.01–6.8)
OR estimate (95% CI) for acute ILD: Interaction of smoking history and normal lung coverage [1, 4]: 0.14 (0.01–1.52)
OR estimate (95% CI) for acute ILD: Pre-existing IP (yes vs no) [1, 4]: 4.49 (0.33–60.44)
OR estimate (95% CI) for acute ILD: WHO performance status 1 vs 0 [1, 4]: 0.55 (0.19–1.62)
OR estimate (95% CI) for acute ILD: WHO performance status 2–3 vs 0 [1, 4]: 1.37 (0.35–5.39)
OR estimate (95% CI) for acute ILD: Age (≥55 vs <55 years) [1, 4]: 1.54 (0.36–6.6)
OR estimate (95% CI) for acute ILD: Normal lung coverage (10%–50% vs 60%–100%) ([1]; Analysis 2 (PK parameter AUC0–24,ss), p<0.05): 9.47 (1.14–78.84)*
OR estimate (95% CI) for acute ILD: AUC0–24,ss Quartile 2 vs Quartile 1 [1, 5]: 1.2 (0.27–5.32)
OR estimate (95% CI) for acute ILD: AUC0–24,ss Quartile 3 vs Quartile 1 [1, 5]: 1.71 (0.42–6.94)
OR estimate (95% CI) for acute ILD: AUC0–24,ss Quartile 4 vs Quartile 1 [1, 5]: 2.09 (0.5–8.74)
OR estimate (95% CI) for acute ILD: Duration of NSCLC ≥1 vs <0.5 years [1, 6]: 0.32 (0.12–0.83)
OR estimate (95% CI) for acute ILD: Interaction of pre-existing IP and normal lung coverage [1, 6]: 0.51 (0.03–9.56)
OR estimate (95% CI) for acute ILD: Interaction of smoking history and normal lung coverage [1, 6]: 0.56 (0.08–3.96)
OR estimate (95% CI) for acute ILD: Normal lung coverage (10%–50% vs 60%–100%) [1, 6]: 3.56 (0.64–19.85)
OR estimate (95% CI) for acute ILD: Pre-existing IP (yes vs no) [1, 6]: 3.56 (0.33–38.74)
OR estimate (95% CI) for acute ILD: WHO performance status 1 vs 0 [1, 6]: 0.62 (0.21–1.8)
OR estimate (95% CI) for acute ILD: WHO performance status 2–3 vs 0 [1, 6]: 1.89 (0.52–6.85)
OR estimate (95% CI) for acute ILD: Age (≥55 vs <55 years) [1, 6]: 2.13 (0.56–8.04)
OR estimate (95% CI) for acute ILD: Cmax Quartile 2 vs Quartile 1 [1, 7]: 0.51 (0.14–1.8)
OR estimate (95% CI) for acute ILD: Cmax Quartile 3 vs Quartile 1 [1, 7]: 0.5 (0.14–1.72)
OR estimate (95% CI) for acute ILD: Cmax Quartile 4 vs Quartile 1 [1, 7]: 3.03 (1–9.17)
OR estimate (95% CI) for acute ILD: Duration of NSCLC ≥1 vs <0.5 years [1, 8]: 0.59 (0.2–1.75)
OR estimate (95% CI) for acute ILD: Interaction of pre-existing IP and normal lung coverage [1, 8]: 0.18 (0.01–4.98)
OR estimate (95% CI) for acute ILD: Interaction of smoking history and normal lung coverage [1, 8]: 0.17 (0.02–1.89)
OR estimate (95% CI) for acute ILD: Pre-existing IP (yes vs no) [1, 8]: 5.21 (0.39–70.35)
OR estimate (95% CI) for acute ILD: WHO performance status 1 vs 0 [1, 8]: 0.57 (0.19–1.68)
OR estimate (95% CI) for acute ILD: WHO performance status 2–3 vs 0 [1, 8]: 1.34 (0.33–5.39)
OR estimate (95% CI) for acute ILD: Age (≥55 vs <55 years) [1, 8]: 1.69 (0.4–7.17)
OR estimate (95% CI) for acute ILD: Normal lung coverage (10%–50% vs 60%–100%) ([1]; Analysis 4 (PK parameter Cmax,ss), p<0.05): 9.4 (1.11–79.48)*
OR estimate (95% CI) for acute ILD: Cmax,ss Quartile 2 vs Quartile 1 [1, 9]: 0.69 (0.16–3.02)
OR estimate (95% CI) for acute ILD: Cmax,ss Quartile 3 vs Quartile 1 [1, 9]: 1.72 (0.47–6.27)
OR estimate (95% CI) for acute ILD: Cmax,ss Quartile 4 vs Quartile 1 [1, 9]: 1.07 (0.27–4.29)
Structure (SMILES): COc1cc2ncnc(Nc3ccc(F)c(Cl)c3)c2cc1OCCCN1CCOCC1 [gefitinib]
binding to human AGP (human AGP; at 0.05 mg/mL): 83.0%
binding to human AGP (human AGP; at 8 mg/mL): 68.5%
